This is an account of results in article PMC8125089, “Synthesis, Structure, Carbohydrate Enzyme Inhibition, Antioxidant Activity, In Silico Drug-Receptor Interactions and Drug-Like Profiling of the 5-Styryl-2-Aminochalcone Hybrids” (Molecules, 2021).

Data set [1] has as its target yeast α-glucosidase from Saccharomyces cervisiae (Saccharomyces cerevisiae, UniProt P53341). As to the kind of experiment: biochemical. The note with it: mean ± SD of three independent experiments; pH 6.8, 37 °C; read-out: IC50 (SD) α-Glucosidase. How it is done:
All the tests and analyses were performed in triplicates following a modified published protocol described in our previous study. […] 2.5, 5, 10, 25 and 50 µM. α-Glucosidase solution (0.48 u/mL, 20 µL), phosphate buffer (100 mM, pH 6.8; 30 µL) and the test sample (20 µL) as well as the reference standard were added in the designated wells, and the reaction mixtures were incubated at 37 °C for 10 min. 2 mM p-nitrophenyl-α-D-glucopyranoside (20 µL) was added to each of the wells containing reaction mixture to initiate the reaction. The reaction was pre-incubated for 30 min at 37 °C. The reaction was stopped by the addition of 20 μL of a solution of sodium carbonate (200 mM) to each well. Five absorbance readings were recorded for each triplicate run at a wavelength of 400 nm using Varioskan flash microplate spectrophotometer (Thermo Scientific, Waltham, MA, USA). The average values obtained from the readings were used to determine the IC50 and standard deviation values. The values were calculated by the nonlinear regression analysis and expressed as the mean SD of three distinct experiments using Graph Pad Prism software.

The target of the next data set is α-amylase. Nature of the data set: α-Amylase inhibition assay (α-Amylase Inhibitor Screening Kit). In kind it is biochemical. The following applies: mean ± SD of three independent experiments. How it is done: The α-amylase assay was performed in triplicate using a 96-well plate following the procedure by the manufacturer as outlined in the α-Amylase Inhibitor Screening Kit (Catalog No. K482; Bio Vision). […] For inhibitor control (10 µL of α-amylase inhibitor and 40 µL of assay buffer were added to 3 wells), enzyme control (50 µL of assay buffer was added to three wells) and 50 µL of the test compounds were added into the remaining wells. A solution of α-amylase enzyme (50 µL) prepared by adding 490 µL of assay buffer to 10 µL of α-amylase enzyme was added to each of the wells containing the reaction mixture to initiate the reaction. The plate was incubated for 10 min at room temperature in the dark. Five different absorbance readings were recorded for each triplicate run at a wavelength of 405 nm using Varioskan flash microplate spectrophotometer (Thermo Scientific, Waltham, MA, USA). The IC50 and SD values were calculated using graph pad prism.

A short description of data set [2]: DPPH radical scavenging assay. The note with it: free radical scavenging; mean ± SD of three independent experiments. From the text:
(§1) Reduced or lack of antioxidant activity of these compounds was attributed to the presence of intramolecular N-H···O hydrogen bond between amino and kenone group of the 2-aminochalcones and their sulfanamido derivatives which is envisaged to deactivate the unsaturated moiety. […] A combination of the styryl and the electrophilic α,β-unsaturated carbonyl arms on the same molecular framework encouraged us to evaluate the test compounds for antioxidant properties through the DPPH and NO radical scavenging assays. […] Compound 2a has potential to inhibit both α-glucosidase and α-amylase activities, and to reduce oxidative stress. […] The observed free radical scavenging activities of these molecular hybrids is presumably due to the presence of styryl arm on the intramolecularly hydrogen bonded 2-aminochalcone scaffold.
The antioxidant activities of the test compounds against ascorbic acid (Sigma Aldrich, Saint Louis, Missouri, USA) as a positive control were evaluated using 2,2-diphenyl-1-picrylhydrazyl (DPPH) radical scavenging assay developed by Zhu et al. as described in our previous study. Triplicate solutions (20 µL) of the test compounds and ascorbic acid in DMSO (final concentrations: 5, 10, 25, 50, and 100 µM) were added into each designated well of a 96-well plate. A solution of 0.20 mM DPPH (20 µL) in methanol was added to each well, and the 96-well plate was wrapped with aluminum foil and incubated in the dark for 45 min. Five absorbance readings were recorded at 512 nm using Varioskan flash microplate spectrophotometer reader. The average values obtained from the absorbance readings were used to determine the IC50 and standard deviation values.

The nature of data set [3]: NO free radical scavenging assay (sodium nitroprusside, Griess reaction). The note with it: mean ± SD of three independent experiments.
Text: as §1
Nitric oxide was generated from sodium nitroprusside and measured by Griess’ reaction following the literature method. The experiment was done in triplicate with ascorbic acid (vitamin C) used as a positive control for the assay. In a 96 well plate, 5 μL of the test compounds (0.1, 0.5, 1.0, 5.0 and 10.0 μM in methanol) or the positive control were mixed with 5 μL of 10 mM sodium nitroprusside prepared in phosphate buffered saline (pH = 7.4) and allowed to incubate at room temperature for 2.5 h. Afterwards, 30 μL of the Griess reagent (a mixture of 0.2% N-(1-naphthyl)ethylenediamine dihydrochloride and 2% sulfanilamide in […]) was added to each well and the mixtures were and allowed to stand at room temperature for 30 min. Five absorbance readings were recorded at 546 nm using Varioskan flash microplate spectrophotometer reader.

For the next data set, the target named is α-glucosidase (Saccharomyces cerevisiae, UniProt P53341). Nature of the data set: Enzyme kinetic studies (Lineweaver-Burk and Dixon plots). In kind it is biochemical. The method, then:
The Lineweaver-Burk plot of 1/V versus 1/[S] in the presence of different concentrations of compound 2a in the case of α-glucosidase gave a series of straight lines that intersect on the x-axis (Figure 3a). […] The compound probably binds to the active site and other allosteric sites on the enzyme.
Enzyme kinetics studies were performed on compounds 2a and 3e with increasing inhibitor and substrate concentrations. In the experimental procedure, inhibitors concentrations of 0.1, 0.5, 1, 2.5 µM, and final substrate concentration were 0.1, 0.5, 1 and 5 mM were used. 5 μL of the inhibitor and 2 μL of the enzyme (α-glucosidase) were added to each well of the 96-well plate. The reaction was incubated for 20 min at room temperature. 18 μL of the substrate, PNPG (4-nitrophenyl α-D-glucopyranoside) was then added and absorbance readings recorded after every 2 min at wavelength of 400 nm using a Varioskan flash microplate spectrophotometer reader. Lineweaver-Burk plot (the inverse of velocity (1/v) against the inverse of the substrate concentration (1/[S]) were used to determining the type of inhibition, while the inhibitor constant was obtained from the Dixon plot (the inverse of velocity (1/v) against concentration of inhibitor at each substrate concentration)

For another data set, the system named is Vero cells. As to the kind of experiment: MTT cytotoxicity assay on Vero cells. The format is cell-based. The note with it: monkey, 24 h treatment. How it is done: (§2) Metabolic diseases such as diabetes require a stable long-term therapy accompanied by well tolerated and low toxicity, and this encouraged us to evaluate the safety profile of 2a and 3e as potential antidiabetic agents at least in vitro. The compounds were evaluated for cytotoxicity against the normal monkey kidney cells (Vero cells) and the adenocarcinomic human epithelial (A549) cell line using the 3-(4,5-dimethylthiazol-2-yl)-2, 5-diphenyltetrazolium (MTT) assay.
The cytotoxicity activity of compounds 2a and 3e was evaluated against doxorubicin (positive control) using the 3-(4,5-dimethylthiazol-2-yl)-2,5-diphenyltetrazolium bromide (MTT) assay following a modification of a literature method by Mosmann. The Vero and A549 cells were maintained in Dulbecco′s modified Eagle′s medium (DMEM; Gibco) supplemented with 10% Fetal bovine serum (FBS) and 1% penicillin/streptomycin in culture flasks and incubated at 37 °C in 5% CO2. When the cells reached 85% confluency, they were detached using 2% trypsin. Cell count was performed using a handheld automated cell counter (Scapter 3.0™, Merck). The cells were seeded at 1 × 10^5 cells/well and incubated overnight to allow cell attachment. […] Five absorbance readings were recorded at 517 nm using Varioskan flash microplate spectrophotometer reader.

A further data set deals with A549 cells. Nature of the data set: MTT cytotoxicity assay on A549 cells. In kind it is cell-based, human. The note with it: human, A549 cells, 24 h treatment. The method, then: as §2
The cytotoxicity activity of compounds 2a and 3e was evaluated against doxorubicin (positive control) using the 3-(4,5-dimethylthiazol-2-yl)-2,5-diphenyltetrazolium bromide (MTT) assay following a modification of a literature method by Mosmann. The Vero and A549 cells were maintained in Dulbecco′s modified Eagle′s medium (DMEM; Gibco) supplemented with 10% Fetal bovine serum (FBS) and 1% penicillin/streptomycin in culture flasks and incubated at 37 °C in 5% CO2. When the cells reached 85% confluency, they were detached using 2% trypsin. Cell count was performed using a handheld automated cell counter (Scapter 3.0™, Merck). The cells were seeded at 1 × 10^5 cells/well and incubated overnight to allow cell attachment. After 24 h, the cells were treated with different concentrations (0, 2.5, 5, 10, 25, 50, 100 µM) of the test compounds and the reference stand. The cells were incubated for 24 h followed by treatment with 20 µL of MTT solution (5 mg/mL). After 4 h incubation period, DMSO (100 µL) was added to each well to dissolve the formazan crystals. Five absorbance readings were recorded at 517 nm using Varioskan flash microplate spectrophotometer reader.

Molecules are shown by their SMILES.

Sequence of α-glucosidase (P53341 whole entry): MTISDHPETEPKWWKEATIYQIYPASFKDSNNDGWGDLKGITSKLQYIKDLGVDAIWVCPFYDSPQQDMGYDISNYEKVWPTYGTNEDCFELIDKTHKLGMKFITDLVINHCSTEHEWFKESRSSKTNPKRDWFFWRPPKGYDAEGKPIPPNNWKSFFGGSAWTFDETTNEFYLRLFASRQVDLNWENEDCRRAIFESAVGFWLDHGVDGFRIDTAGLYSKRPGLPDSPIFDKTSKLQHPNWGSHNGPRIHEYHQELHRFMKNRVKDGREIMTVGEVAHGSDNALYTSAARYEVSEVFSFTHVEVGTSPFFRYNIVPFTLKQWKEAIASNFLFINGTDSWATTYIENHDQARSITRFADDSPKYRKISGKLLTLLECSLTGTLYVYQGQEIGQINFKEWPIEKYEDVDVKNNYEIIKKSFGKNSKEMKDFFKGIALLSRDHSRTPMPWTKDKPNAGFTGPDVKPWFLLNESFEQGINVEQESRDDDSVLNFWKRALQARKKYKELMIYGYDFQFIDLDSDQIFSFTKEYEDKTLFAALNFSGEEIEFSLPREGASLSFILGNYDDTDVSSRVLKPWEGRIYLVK
Sequence of yeast α-glucosidase from Saccharomyces cervisiae (P53341 whole entry): as above

Regarding `Nc1ccc(/C=C/c2ccccc2)cc1C(=O)/C=C/c1ccc(F)cc1` [Compound 3e, (E)-1-(2-Amino-5-((E)-styryl)phenyl)-3-(4-fluorophenyl)prop-2-en-1-one], the melting point lay in the range of 161 to 162 °C. For the same compound, the IC50 in data set [1] was 5.1 ± 0.61 µM. Also, the IC50 at α-amylase stood at 1600 ± 520 nM. The IC50 in data set [2] turned out to be 4.2 ± 0.43 µM. Moreover, the IC50 in data set [3] amounted to 20.5 ± 0.46 µM. The “velocity of the reaction (Vmax)” value on α-glucosidase (α-glucosidase in the presence of increasing inhibitor concentrations, Lineweaver-Burk plot) worked out at 0.01 ± 0.002 µM/min. Besides, on α-glucosidase (α-glucosidase, PNPG substrate, read-out: Ki (Dixon plot)), the Ki was determined as 1480 ± 50 nM. In addition, the mode of inhibition result at α-glucosidase (α-glucosidase, Lineweaver-Burk and Dixon plots) is “mixed mode of inhibition”. It took 220 ± 0.57 µM to reach half-maximal inhibition with Vero cells (IC50 at 24 h). This compound returned an IC50 at 24 h with A549 cells of 204 ± 0.55 µM.
